Results on ten compounds are retold here after ChEMBL document CHEMBL1201862, “PubChem BioAssay data set” (2004).

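48-hour exposure; five concentrations; linearly interpolated endpoints. GI50 marks 50% less growth.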 Calls of active or inactive are those of the source. Rule as the data show it: active = GI50 up to about 1.1 µM and inactive = higher.

Assay in all cases: growth of human tumour cells (NCI), 48 h
The test system of test [1] is 786-0.
Test [2] has as its system A549.
Test [3] concerns CCRF-CEM.
Test [4] concerns COLO 205.
For test [5], the system named is EKVX.
Test [6] deals with HOP-62.
In test [7] the test system is MCF7.
Test [8] concerns MDA-MB-435.
Test [9] relates to MOLT-4.
Test [10] concerns Malme-3M.
The test system of test [11] is NCI-H226.
Test [12] relates to NCI-H460.
For test [13], the system named is NCI-H522.
Test [14] relates to OVCAR-3.
For test [15], the system named is OVCAR-5.
The test system of test [16] is SF-268.
The test system of test [17] is SNB-75.
For test [18], the system named is T47D.
The test system of test [19] is TK-10.
The test system of test [20] is UACC-257.

Consider `COc1ccc2c(c1)c(=O)c1c(NCCCN(C)CCCNc3ccc4c(=O)n(CCN(C)C)c(=O)n5c6ccc(OC)cc6c(=O)c3c45)ccc3c(=O)n(CCN(C)C)c(=O)n2c31`, for which the GI50 is < 0.01 µM (active) in test [1]; < 0.01 µM (active) in [2]; < 0.01 µM (active) in [3]; < 0.0473 µM (active) in test [4]; 0.188 µM (active) in test [5]; < 0.036 µM (active) in [6]. Moreover, the GI50 in [7] was < 0.01 µM (active); in test [8] it was < 0.0149 µM (active); in test [9], < 0.01 µM (active); in test [10], 0.484 µM (active); in [11], < 0.01 µM (active); in [12], < 0.01 µM (active). For the same compound, the GI50 in [13] is < 0.0193 µM (active); in test [14] it was 0.138 µM (active); in test [15], 0.29 µM (active); in [16] it was 0.0998 µM (active); in test [17] it was < 0.0175 µM (active); in test [18], 0.619 µM (active). The GI50 in test [19] is 0.119 µM (active); in test [20], 0.352 µM (active).
On to `COc1cccc(C2CC(C)(O)Oc3cc4c(cc32)OCO4)c1O` (stereo unspecified), for which the GI50 in test [1] is 24.8 µM (inactive); in [2] it was 34.4 µM (inactive); in [3], 13.3 µM (inactive); in test [4] it was 19.5 µM (inactive); in test [5], 34.6 µM (inactive); in test [6] it was 27.4 µM (inactive). The GI50 in test [7] was 11.4 µM (inactive); in test [8], 2.78 µM (inactive); in [9], 37.4 µM (inactive); in test [10], 29.2 µM (inactive); in [11], 17.4 µM (inactive); in test [12], 32.6 µM (inactive). Moreover, the GI50 in test [13] is 20.1 µM (inactive); in test [14], 15.6 µM (inactive); in test [15], 27 µM (inactive); in test [16], 31 µM (inactive); in test [17], 14.2 µM (inactive); in test [18], 64.4 µM (inactive). Further, the GI50 in test [19] was 39.7 µM (inactive); in [20] it was 39.4 µM (inactive).
As to `[N-]=[N+]=NC[C@H]1OCO[C@H](CN=[N+]=[N-])[C@@H](OCCOCCCl)[C@@H]1OCCOCCCl`, the GI50 in [1], in test [2], in [3], in test [4], in test [5] and in test [6] was > 100 µM (inactive) in each case. The GI50 in [7], in [8], in test [9], in [10], in test [11] and in test [12] was > 100 µM (inactive) each time. Also, the GI50 in test [13], in test [14], in test [16], in test [17], in test [18] and in [19] was > 100 µM (inactive) throughout. Also, the GI50 in test [20] was > 100 µM (inactive).
Regarding `CCOC(=O)c1c(-c2ccc(Cl)cc2)c(C#N)c(=S)n(C2OC(COC(C)=O)C(OC(C)=O)C(OC(C)=O)C2OC(C)=O)c1C` (stereo unspecified), the GI50 in [1], in [2], in [3], in test [4], in test [5] and in test [6] was > 100 µM (inactive) in each case. Also, the GI50 in test [7], in [8], in [9], in [10], in test [11] and in [12] was > 100 µM (inactive) throughout. The GI50 in test [13] is > 100 µM (inactive); in test [14] it was > 100 µM (inactive); in test [15], > 100 µM (inactive); in [16] it was > 100 µM (inactive); in [17] it was 0.689 µM (active); in [18], > 100 µM (inactive). In addition, the GI50 in [19] and in [20] was > 100 µM (inactive) throughout.
With `NCCSS(=O)(=O)CCN`, the GI50 in test [1], in [2], in test [3], in [4], in test [5] and in test [6] was > 100 µM (inactive) throughout. Besides, the GI50 in [7], in test [8], in test [9], in [10], in [11] and in [12] was > 100 µM (inactive) in each case. Further, the GI50 in test [13], in test [14], in [15], in test [16], in test [17] and in [18] was > 100 µM (inactive) in each case. Moreover, the GI50 in [19] was > 100 µM (inactive).
For the compound `O=C(CC(O)(C(F)(F)F)C(F)(F)Cl)CC(O)(C(F)(F)F)C(F)(F)Cl` (stereo unspecified), the GI50 was 3.47 µM (inactive) in [1]; 2.37 µM (inactive) in test [2]; 3.86 µM (inactive) in test [3]; 1.69 µM (inactive) in test [4]; 2.37 µM (inactive) in [5]; 2.09 µM (inactive) in test [6]. In addition, the GI50 in test [7] was 2.79 µM (inactive); in [8], 2.19 µM (inactive); in [9], 6.27 µM (inactive); in test [10], 1.14 µM (inactive); in [11] it was 2.36 µM (inactive); in test [12], 1.64 µM (inactive). Moreover, the GI50 is 1.61 µM (inactive) in test [13]; 1.62 µM (inactive) in [14]; 2.31 µM (inactive) in test [16]; 2.82 µM (inactive) in [17]; 1.49 µM (inactive) in test [18]; 3.08 µM (inactive) in [19]. For the same compound, the GI50 in test [20] was 1.32 µM (inactive).
As for `CCc1c(Cl)nc(Cl)nc1Cl`, the GI50 in test [1] is 0.122 µM (active); in test [2], 1.95 µM (inactive); in [3], < 0.0121 µM (active); in test [4], 0.0764 µM (active); in test [5] it was 0.519 µM (active); in test [6], 2.09 µM (inactive). The GI50 in test [7] was 0.0578 µM (active); in test [8] it was 0.0834 µM (active); in test [9], 0.0173 µM (active); in test [10] it was 0.0509 µM (active); in test [11], 0.0692 µM (active); in test [12], 1.93 µM (inactive). In addition, the GI50 in [13] was 0.0132 µM (active); in test [14], 0.104 µM (active); in test [15] it was 0.324 µM (active); in test [16], 0.217 µM (active); in test [17], 1.17 µM (inactive); in test [18], 0.339 µM (active). The GI50 in test [19] was 1.58 µM (inactive); in [20] it was 0.448 µM (active).
For `NC(=O)CSc1c2cc(O)ccc2nc2ccc(O)cc12`, the GI50 in test [1], in [2], in test [3], in test [4], in [5] and in test [6] was > 10 µM (inactive) throughout. Moreover, the GI50 in test [7], in [8], in [9], in [10], in [11] and in test [12] was > 10 µM (inactive) in each case. For the same compound, the GI50 in test [13], in test [14], in [15], in test [16], in [17] and in [18] was > 10 µM (inactive) in each case. Also, the GI50 in test [19] and in test [20] was > 10 µM (inactive) in each case.
Consider `O=[N+]([O-])c1ccc2c3c1[C@@H]1O[C@@H]1c1cccc(c1-3)[C@@H]1O[C@H]21`, for which the GI50 in [1] was 2.47 µM (inactive); in [2], 6.76 µM (inactive); in test [3], 2.45 µM (inactive); in test [4], 6.47 µM (inactive); in test [5] it was 6.35 µM (inactive); in test [6], 10.2 µM (inactive). Also, the GI50 in test [7] is 3.55 µM (inactive); in test [8], 2.08 µM (inactive); in test [9], 4.69 µM (inactive); in test [10], 3.49 µM (inactive); in test [11], 26.6 µM (inactive); in test [13], 1.67 µM (inactive). Further, the GI50 was 3.05 µM (inactive) in [14]; 13.6 µM (inactive) in test [15]; 2.56 µM (inactive) in test [16]; 5.68 µM (inactive) in [17]; 3.35 µM (inactive) in test [18]; 7.78 µM (inactive) in test [19]. In test [20], the GI50 was 6.87 µM (inactive).
As to `N=C(N)Nc1nc2cc([N+](=O)[O-])ccc2[nH]1`, the GI50 was > 100 µM (inactive) in test [1]; > 100 µM (inactive) in [2]; > 100 µM (inactive) in [3]; > 100 µM (inactive) in test [4]; 41.6 µM (inactive) in test [5]; > 100 µM (inactive) in [6]. Besides, the GI50 in test [7] is 48.5 µM (inactive); in [8], > 100 µM (inactive); in test [9] it was > 100 µM (inactive); in [10], > 100 µM (inactive); in [11], > 100 µM (inactive); in test [12], > 100 µM (inactive). The GI50 in [13] was 68.5 µM (inactive); in [14], 99.3 µM (inactive); in [15], > 100 µM (inactive); in test [16], > 100 µM (inactive); in [17] it was 22.1 µM (inactive); in [18], 69.2 µM (inactive). Also, the GI50 in [19] was 81.8 µM (inactive); in test [20], 80.2 µM (inactive).
